The structures appear in SMILES notation.

`N#Cc1cccc(CN2CCN(c3ccc(N)cc3)CC2)c1` had a melting point of 79 to 81 °C.
The same measure for `Clc1cccc2c1CN(Cc1c[nH]c3ccccc13)C2`: 163 to 165 °C; for `O=Cc1ccc(OC(F)F)c2oc3ccncc3c12`: 215 to 217 °C.
The same measure for `CN(C)CC(=O)N1c2cc(Cl)ccc2N(C)S(=O)(=O)c2ccccc21`: 175 to 176 °C; for `CN(C)C(=O)c1ccc(C2CCC(=O)CC2)cc1`: 118 °C.
The same measure for `CCCCOc1ccc(S(=O)(=O)C2(C(=O)O)CCN(CCCC)CC2)cc1`: 182 °C; for `CC(=O)Nc1c(C(=O)c2ccccc2)[nH]c2c(Cl)cccc12`: 185 to 188 °C.
On to `O=C(Nc1ccc(-c2cnc(-c3ccc(NC(=O)C4CCCCC4)cc3)[nH]2)cc1)C1CCCCCC1`, for which the melting point fell in the range of 192 to 194 °C.
Take `Cc1cc2n(c1C(=O)c1cccs1)CCC2C(=O)OC(C)C` (stereo unspecified): the melting point is 102 °C.
The same measure for `CC1(C)Oc2cc(C#N)c(C#N)cc2O1`: 202 to 203 °C; for `CCOC(=O)c1cn2c3c(c(-c4cc(C)nc(C)c4)c(F)c(SCc4ccccc4)c3c1=O)OC[C@@H]2C`: 175 to 178 °C.
As for `CCCCN(C)C(=O)c1cccc(-c2nc(=O)c3ccccc3s2)n1`, the melting point is 80 to 81.6 °C.
`Cc1cc(Cc2cc(C)cc(C(C)(C)C)c2O)c(O)c(-n2nc3ccccc3n2)c1` displayed a melting point of 167 °C.
Regarding `CC(=O)NCCCc1c(Cl)ccc2occc12`, the melting point lay within 82 to 83 °C.
`COc1ccc(C=C(C=O)C(C=O)=Cc2ccc(OC)cc2)cc1`: the melting point is 207 °C.
The same measure for `CCOc1cc(C#N)ccc1C(=O)O`: 170 to 172 °C; for `C=Cc1cc(C)c(C(=O)N=C(N)N)cc1S(C)(=O)=O`: 223 to 226 °C.
`Nc1nc(OCC2CC2)c2ncn(C3CC(F)C(CO)O3)c2n1` (stereo unspecified) gave a melting point of 80 to 81 °C.
The same measure for `N=C(NC=Cc1ccc(N)cc1)c1ccccc1`: 166 to 168 °C; for `N#Cc1nc(Cl)c(Cl)[nH]1`: 187 to 189 °C; for `OCC1(CO)COCCNCCOCCCOCCNCCO1`: 137 to 140 °C.
The same measure for `O=S(=O)(CCCl)CCC(F)(F)C(F)(F)C(F)(F)C(F)(F)C(F)(F)C(F)(F)C(F)(F)C(F)(F)C(F)(F)C(F)(F)F`: 147 to 148 °C; for `CCCCCN(CCCCC)C(=O)C(CCC(=O)OC)CS(=O)c1ccc(Cl)c(Cl)c1` (stereo unspecified): 64 to 65 °C.
The same measure for `CCOC(=O)CC(=O)c1cc(F)c(OP(=O)(Oc2ccccc2)Oc2ccccc2)nc1Nc1ccc(F)cc1F`: 85 to 86 °C.
In the case of `CC(O)(COc1ccc(S(=O)(=O)c2ccccc2)cc1)C(F)(F)F` (stereo unspecified), the melting point lay within 94 to 96 °C.
The same measure for `CC(C)(C)OC(=O)Nc1ccc(-c2ccc(-c3ccccc3)cc2)cc1N`: 206 to 207 °C; for `Cn1nc(-c2ccccc2)c(Sc2ccccc2)c1-c1ccccc1`: 109 to 110 °C; for `O=C(CCl)C1=NOC(c2ccccc2F)C1` (stereo unspecified): 42 to 44 °C.
For the molecule `Cc1ccccc1N=NC1=NCCS1`, the melting point lay in the range of 79 to 80 °C.
The same measure for `CON=CC1CCCN(OC(=O)c2ccccc2)C1` (stereo unspecified): 38 to 40 °C.
Regarding `CC(=O)OC1(Cc2ccncc2)C(=O)N(N2CCOCC2)c2ccccc21` (stereo unspecified), the melting point lay within 178 to 180 °C.
`Cc1cccc(C2CCN(C(=O)Oc3ccccc3)CC2)c1` registered a melting point of 127 to 130 °C.
The same measure for `CCCOc1cc(CC)c(C(=O)OC)c(C(=O)O)c1`: 99 to 100 °C; for `Cc1nc[nH]c1CSCCN=C(NCCSCc1[nH]cnc1C)NC(N)=O`: 60 to 70 °C.
Molecule `COCC1CN(Cc2cc(OC)c(OC)c(OC)c2)CCN1C(=O)c1cn2ccccc2n1` (stereo unspecified) displayed a melting point of 129 to 130 °C.
As for `CCCc1c(OCCCOc2cc(OCC(=O)O)ccc2C(C)=O)ccc(C(C)=O)c1O`, the melting point was 151 to 155 °C.
The same measure for `COc1cc(OC)n2ncc(Br)c2n1`: 188 to 190 °C.
`COC(=O)CCn1nc2ccccn2c1=O`: the melting point lay within 95 to 99 °C.
The same measure for `Cc1cc(Oc2c(Cl)cc(C(F)(F)F)cc2Cl)nn1C(=O)NCC(F)(F)F`: 104 to 106 °C; for `Clc1ccc(-c2nc(NCc3ccccc3)c3ccccc3n2)cn1`: 212 °C; for `Cc1nc(-n2ccc(OCc3ccccc3)cc2=O)[nH]c1C(=O)NCc1cccnc1`: 203 to 204 °C.
Regarding `COC(=O)c1ccc2oc3c(c(=O)c2c1)CCC3=Cc1ccc(C)cc1C`, the melting point was in the range of 212 to 214 °C.
In turn, `CC(Cl)(Cl)C(NC(=O)c1cc(F)cc(F)c1)NC(=NC#N)Nc1ccc(Cl)nc1` (stereo unspecified) registered a melting point of 195 to 196 °C.
In the case of `CC(=NN(C)c1ccc(C(F)(F)F)cc1)C(=O)NCc1ccc(Cl)nc1`, the melting point lay in the range of 141 to 142 °C.
The same measure for `CCOP(=O)(CC(=O)Nc1cc2c(Nc3ccc(F)c(Cl)c3)ncnc2cc1OCC1CC1)OCC`: 185 to 187 °C.
The same measure for `CCc1nc2c(N)nc3cc(OCCN4CCOCC4)ccc3c2n1CC1CCOCC1`: 230 to 232 °C; for `CCOC(=O)c1sc(Cl)nc1-c1cccc(C)c1`: 41 to 42 °C.
The same measure for `Cn1ccnc1Sc1c(Cl)cccc1[N+](=O)[O-]`: 102 to 104 °C.
In the case of `CC(C)(C)N(Cc1ccccc1)CC(O)COc1cccc2c1CNC(=O)N2` (stereo unspecified), the melting point is 215 to 217 °C.
As for `CNC(=O)CCc1ccc2cc(O[C@@H](C)[C@H](O)CCc3cccnc3)ccc2c1`, the melting point lay within 68 to 70 °C.
The same measure for `N#CCCCCOc1ccc(C=Cc2ccncc2)cc1`: 85 to 87 °C; for `CCCn1c2cc(OCc3ccccc3)ccc2c2ccnc(C)c21`: 113 °C.
The same measure for `Cn1c(=O)c(-c2ccc(Cl)cc2Cl)cc2c3cc(-c4nc(CN)cs4)ccc3n(C)c21`: 261 to 266 °C; for `Cc1ccc(S(=O)(=O)N2CCN(Cc3ccccc3)CCN(S(=O)(=O)c3ccc(C)cc3)CCN(S(=O)(=O)c3ccc(C)cc3)CC2)cc1`: 208 to 210 °C; for `C[C@@H]1S[C@@H](C(=O)Nc2ccc(CN3C(=O)COC3=O)cc2)Cc2cc3c(cc2C1=O)OCO3`: 240 to 242 °C.
The same measure for `CC(=O)Cc1ccc(C#CC(C)(C)O)cc1`: 67 to 69 °C; for `CCC(=O)Nc1nc(C)c(C(=O)NCc2ccccc2)s1`: 175 to 176 °C; for `CCOCCc1nc(N)cc(=O)[nH]1`: 167 to 170 °C.
Molecule `O=C(CCl)Nc1cccc2[nH]ccc12` had a melting point of 114 to 116 °C.
The same measure for `CSc1ccc(Nc2cscc2C#N)c([N+](=O)[O-])c1`: 167 to 169 °C.
`Cc1c(CCC(=O)c2c[nH]c3ccccc23)ncn1C(c1ccccc1)(c1ccccc1)c1ccccc1`: the melting point lay within 225 to 227 °C.
The same measure for `CC(C)(C)c1cc(CCC(CCc2cc(C(C)(C)C)c(O)c(C(C)(C)C)c2)OC(=O)c2ccccc2)cc(C(C)(C)C)c1O`: 115 to 116 °C; for `CC(C(=O)c1ccncc1)c1ccc(C2=CCCCC2)cc1` (stereo unspecified): 88 to 90 °C.
The same measure for `Fc1cccc(Cl)c1-c1cc(-c2ccc(Cl)cc2)nc2ncnn12`: 238 to 239 °C; for `CCCOc1ccc(CC(=O)NCC(=O)OC)cc1Cl`: 76 to 80 °C.
Consider `COC(=O)NC(=N)CC(C)C`, for which the melting point was in the range of 82 to 86 °C.
`CC(=O)N1CC(=O)c2ccccc21` registered a melting point of 138 °C.
The same measure for `CCCN(CC)C1(c2ccccc2)c2ccccc2OC1[N+](=O)[O-]` (stereo unspecified): 99 to 100 °C; for `COc1ccc(/C=C/C(=O)C2C(=O)CC(c3ccc(OC)cc3)C([N+](=O)[O-])C2C2CCCCC2)cc1` (stereo unspecified): 203 to 205 °C; for `O=C1Nc2cccc(-c3cccc(NC(=O)c4ccc(F)cc4)c3)c2/C1=C/c1ccc[nH]1`: 130 to 131 °C.
The same measure for `O=C(Oc1c(F)c(F)c(F)c(F)c1F)c1ccc(F)c(F)c1Nc1ccc(I)cc1Cl`: 108 to 110 °C; for `Cn1c(CCCCN2CCN(c3cc(C(C)(C)C)nc(C(C)(C)C)n3)CC2)nnc1-c1ccccc1`: 144 to 145 °C.
Molecule `O=C1Nc2ccccc2SC1CCCCN1CCN(c2ccc(F)cc2)CC1` (stereo unspecified) had a melting point of 150 to 151 °C.
The same measure for `Nc1ccccc1NC(=O)c1ccc(C(=O)Nc2cccc(Nc3nc(-c4cccnc4)cs3)c2)s1`: 222 °C; for `COC1=CCC2=C(CCC3C2CCC2(C)C(=O)CCC32)C1` (stereo unspecified): 106 to 110 °C.
The same measure for `Nc1cc(OCc2ccccc2)c(C(=O)O)cc1Cl`: 182 to 184 °C; for `CN(O)CCCc1ccc2c(c1)C(=O)c1ccccc1CO2`: 113 to 114 °C.
The same measure for `CCOC(=O)NOC(=O)c1ccc(Cl)cc1`: 79 °C; for `O=C(O)Cc1cccc(Oc2ccccc2Cl)c1[N+](=O)[O-]`: 162 to 164 °C.
`CNc1cccc(C#CCCn2nc3ccccc3n2)n1` gave a melting point of 150 to 154 °C.
`N#CNc1ccccc1I` gave a melting point of 117 to 118 °C.
The same measure for `O=C1CCc2ccc(OCCCCOc3ccc4c(c3)NC(=O)CC4)cc2N1`: 218 °C; for `CCC(C(=O)N(C)C)n1nc(-c2ccccc2)cc1C` (stereo unspecified): 117 to 120 °C; for `CCc1c(C)nc2n(c1=O)C(C)CCC2=NNc1ccccc1` (stereo unspecified): 135 to 137 °C.
The same measure for `CS(=O)(=O)Nc1cnccc1CCCOc1cccnc1Oc1cccc(Cl)c1`: 131 to 133 °C.
The same measure for `CCCN(CCC)CC(=O)OC1CC2(C)C(C#N)CCC2C2CCC3CC(O)CCC3(C)C12` (stereo unspecified): 114 to 116 °C; for `O=C(O)CCP(=O)(O)c1ccccc1`: 158 to 161 °C.
In the case of `CCCCCCCCCCCCCCC(O)(CCCCCC(=O)O)CCCCCC(=O)O`, the melting point was in the range of 79 to 80 °C.
The same measure for `COc1ccc2ccc(O)c(C3NCCc4ccccc43)c2c1` (stereo unspecified): 126 to 130 °C; for `O=C1c2ccsc2CCN1Cc1ccccc1`: 54 °C.
The same measure for `Nc1cccc(Oc2ccc(-c3ccc(Oc4cccc(N)c4)cc3)cc2)c1`: 144 to 146 °C.

By melting point is commonly meant the temperature of the solid-liquid transition.

(Values after a melting point compilation (Tetko et al.; mined from patent text by program, amines drawn as free bases though some values may be those of a salt).)
